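Growth conditions: 96-well plates. Treatment: test compound, 48 hours, 5 concentrations. Analysis: linear interpolation between bracketing concentrations; unreached endpoints set to highest concentration. At the GI50, growth is halved.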 Active and inactive are the calls of the source. Rule as the data show it: active = GI50 up to about 1.1 µM and inactive = higher.
Assays:
Assay in all cases: growth of human tumour cells (NCI), 48 h
BT-549 = tested on: BT-549
TK-10 = tested on: TK-10
OVCAR-4 = tested on: OVCAR-4
HCT-15 = tested on: HCT-15
Hs-578T = tested on: Hs-578T
EKVX = tested on: EKVX
OVCAR-3 = tested on: OVCAR-3
786-0 = tested on: 786-0
HT-29 = tested on: HT-29
Malme-3M = tested on: Malme-3M
COLO 205 = tested on: COLO 205
SR = tested on: SR
SN12C = tested on: SN12C
MCF7 = tested on: MCF7
SF-295 = tested on: SF-295
HCT-116 = tested on: HCT-116
SW-620 = tested on: SW-620
MDA-N = tested on: MDA-N
LOX IMVI = tested on: LOX IMVI
NCI/ADR-RES = tested on: NCI/ADR-RES
RPMI-8226 = tested on: RPMI-8226
CCRF-CEM = tested on: CCRF-CEM
K562 = tested on: K562
SK-MEL-2 = tested on: SK-MEL-2
A498 = tested on: A498
HCC 2998 = tested on: HCC 2998
SF-268 = tested on: SF-268
CAKI-1 = tested on: CAKI-1
SK-MEL-5 = tested on: SK-MEL-5
UACC-257 = tested on: UACC-257
SK-MEL-28 = tested on: SK-MEL-28
IGROV-1 = tested on: IGROV-1
A549 = tested on: A549
HL-60 = tested on: HL-60
PC-3 = tested on: PC-3
M14 = tested on: M14
SF-539 = tested on: SF-539
OVCAR-5 = tested on: OVCAR-5
HOP-62 = tested on: HOP-62
HOP-92 = tested on: HOP-92
SK-OV-3 = tested on: SK-OV-3
UO-31 = tested on: UO-31
UACC-62 = tested on: UACC-62
NCI-H460 = tested on: NCI-H460
ACHN = tested on: ACHN
OVCAR-8 = tested on: OVCAR-8
MDA-MB-435 = tested on: MDA-MB-435
MOLT-4 = tested on: MOLT-4
NCI-H23 = tested on: NCI-H23
SNB-19 = tested on: SNB-19
RXF 393 = tested on: RXF 393
MDA-MB-231 = tested on: MDA-MB-231
KM12 = tested on: KM12
NCI-H226 = tested on: NCI-H226
U-251 = tested on: U-251
NCI-H522 = tested on: NCI-H522
DU-145 = tested on: DU-145
T47D = tested on: T47D
SNB-75 = tested on: SNB-75

Measured: GI50

CCCNC(=O)Cn1c2c(c3ccccc31)CCCC2
45.2 µM: HCT-15
inactive: BT-549 87.7 µM | TK-10 > 100 µM | OVCAR-4 45.8 µM | Hs-578T 23.1 µM | EKVX 56.6 µM | OVCAR-3 36.9 µM | 786-0 > 100 µM | HT-29 > 100 µM | Malme-3M > 100 µM | COLO 205 > 100 µM | SR 42.8 µM | SN12C 65.2 µM | MCF7 > 100 µM | SF-295 38.5 µM | HCT-116 29.2 µM | SW-620 55.6 µM | MDA-N 68.7 µM | LOX IMVI > 100 µM | NCI/ADR-RES 50.9 µM | RPMI-8226 40.7 µM | CCRF-CEM > 100 µM | K562 73.1 µM | SK-MEL-2 > 100 µM | A498 27.8 µM | HCC 2998 75.5 µM | SF-268 > 100 µM | CAKI-1 77.1 µM | SK-MEL-5 33.7 µM | UACC-257 94 µM | SK-MEL-28 88.9 µM | IGROV-1 > 100 µM | A549 53.8 µM | HL-60 29.6 µM | PC-3 63.8 µM | M14 > 100 µM | SF-539 37.1 µM | OVCAR-5 > 100 µM | HOP-62 78 µM | HOP-92 > 100 µM | SK-OV-3 94.8 µM | UO-31 20 µM | UACC-62 45.4 µM | NCI-H460 58.2 µM | ACHN 34.9 µM | OVCAR-8 > 100 µM | MDA-MB-435 > 100 µM | MOLT-4 43.6 µM | NCI-H23 72.3 µM | SNB-19 36.7 µM

C[C@]12CC[C@H](O)CC1=CC[C@@H]1C2CC[C@]2(C)Nc3c(cnn3-c3ccc(F)cc3)CC12 (some centres undefined)
inactive: BT-549 14.4 µM | TK-10 78.2 µM | OVCAR-4 19 µM | RXF 393 2.25 µM | EKVX 79.6 µM | MDA-MB-231 > 41.8 µM | OVCAR-3 48.5 µM | 786-0 3.09 µM | HT-29 5.94 µM | KM12 29.4 µM | Malme-3M 14.2 µM | NCI-H226 40.9 µM | U-251 6.3 µM | SR > 100 µM | SN12C 37.4 µM | MCF7 > 52.2 µM | SF-295 2.43 µM | HCT-116 14.7 µM | MDA-N > 53.8 µM | LOX IMVI 3.2 µM | NCI/ADR-RES 21.5 µM | CCRF-CEM 2.94 µM | NCI-H522 48.1 µM | K562 2.25 µM | A498 2.17 µM | HCC 2998 > 68.2 µM | DU-145 32 µM | SF-268 26.1 µM | T47D > 42.7 µM | CAKI-1 64.6 µM | SK-MEL-5 25.2 µM | UACC-257 60.8 µM | SK-MEL-28 3.49 µM | IGROV-1 > 100 µM | A549 52.1 µM | SNB-75 2.71 µM | HL-60 4.12 µM | PC-3 14.1 µM | M14 > 100 µM | SF-539 1.46 µM | OVCAR-5 > 100 µM | HOP-62 10.8 µM | HOP-92 21.4 µM | SK-OV-3 15.7 µM | UO-31 > 39.4 µM | UACC-62 14.6 µM | NCI-H460 3.51 µM | ACHN 16 µM | OVCAR-8 23.3 µM | MDA-MB-435 41.2 µM | MOLT-4 3.48 µM | NCI-H23 26.5 µM | SNB-19 19.3 µM
> 100 µM: HCT-15

Reference: ChEMBL document CHEMBL1201862, “PubChem BioAssay data set” (2004)
